Here are results for two compounds from patent US12624029B2, “JAK inhibitor compounds, method for synthesizing same and use thereof” (GALDERMA HOLDING SA, priority 2020, dated 2026).

Data set [1] has as its system Salmonella typhimurium TA98 and TA100. The data set is described as follows: Mini Ames assay (TA98 and TA100). It is filed as cell-based. The settings on record: for increase in the mean number of revertants: TA98 and TA100, with or without metabolic activation (S9). The source says:
The Ames test in micro-method (in 6-well plates=mini Ames) follows the general principles of the standard Ames's technique. The Ames test used strains of bacteria Salmonella typhimurium that carry mutations in the genes involved in histidine synthesis. These strains are auxotrophic mutants, they require histidine for growth but cannot produce it. The assay was used to observe the ability of the test item to induce reverse mutations allowing the bacteria to grow in a histidine-free medium. The number of bacteria that revert and acquire the wild-type ability to grow in the absence of histidine can be estimated by counting the colonies that develop upon incubation. The use of different strains allows the identification of different mechanisms of gene mutation (TA98 for detection of frameshift mutations and TA100 for detection of base pair substitutions).
In a number of cases, the test item itself is not directly mutagenic but its metabolic derivatives are.
A toxicity assessment was performed on complete nutriment agar plate (with histidine) to define the highest concentration to be used in the genotoxicity assay. Solutions were prepared in 100% DMSO. The first concentration analyzed in the well (6-well plate) was 500 μg per plate followed by 7 serial dilutions (2 times factor of dilution). […] The viability of the positive and negative controls was analyzed for each strain, in the presence or absence of metabolic activation system, and were compared with historical data to validate the study. […]
Test items, positive and negative controls were incubated with the 2 bacterial strains. After 48 h incubation at 37° C. with and without metabolic activation (S9), the prototrophic mutant colonies that had grown on the plates were counted. The results were expressed as the mean number of revertants for each condition tested (3 replicates each) and for each concentration of the test item and controls. Induction ration, corresponding to the ratio of revertants in presence of test item versus spontaneous revertant, was determined for each concentration.
In general terms: In the Ames test, an excess of revertant colonies over the control signals mutagenicity.

In data set [2] the test system is different pharmacological targets. Briefly: CEREP Safety Screen-44 in vitro pharmacology binding and enzyme/uptake assays. The settings on record: tested at 10 μM; FIGS. 2-5. As to the method: An in vitro pharmacology assay was conducted to assess the capability of the compounds to interact with different pharmacological targets when tested at 10 μM in different binding and enzyme/uptake assays. The included targets are indicative of potential effects in major organs and drug-drug interactions.
Compound binding was calculated as a % inhibition of the binding of a radioactively labelled ligand specific for each target. Compounds were tested at 1.0E-05 M. Compound enzyme inhibition effect was calculated as a % inhibition of control enzyme activity. Results showing an inhibition or stimulation higher than 50% are considered to represent significant effects of the test compounds.

Regarding `CN(CC1CCC1)S(=O)(=O)C[C@H]1C[C@@H](Nc2c(C#N)cnc3[nH]ccc23)C1` [Compound D], in data set [1], the “increase in the mean number of revertants” value is on record as “did not induce a biologically significant increase”. Further, in data set [2], the “pharmacological effects in safety screen compared with Ruxolitinib” value was “significantly improved pharmacological effects over Ruxolitinib”.
Regarding `C=CCCN(C)S(=O)(=O)C[C@H]1C[C@@H](Nc2c(C#N)cnc3[nH]ccc23)C1` [Compound C, N-(But-3-en-1-yl)-1-((cis)-3-((5-cyano-1H-pyrrolo[2,3-b]pyridin-4-yl)amino)cyclobutyl)-N-methylmethanesulfonamide], the mutagenicity entry in data set [1] (TA98 & TA100, with and without metabolic system) is reported as “not considered to be mutagenic”. Besides, the “increase in the mean number of revertants” value in data set [1] was “did not induce a biologically significant increase”. The “pharmacological effects in safety screen compared with Ruxolitinib” value in data set [2] is “significantly improved pharmacological effects over Ruxolitinib”.
